Data reported in patent publication US20230181677A1, “POLYPEPTIDE FOR PROMOTING BONE REGENERATION OR BONE FORMATION AND ITS USE” (SEWON BIOTECHNOLOGY INC., priority 2016, published 2023).
Where no end group is shown, it is not given here.

What was measured:
femur muscle of mouse = assay: ectopic ossification analysis, ACS graft in femur muscle, micro-CT; format: in vivo; settings: BMP-2 2 μg left femur, peptide 600 μg right femur; n=10; eight weeks after operation
Experimental: Eight weeks after the operation, animals were euthanized and micro-CT analysis was performed to observe calcification (ectopic ossification) in the muscle. All 10 animals were used.

[1] = system: undifferentiated stem cells; assay: ALP activity of undifferentiated stem cells cultured on titanium disk (osteocyte differentiation); format: cell-based; settings: peptide 10 μM, 6 hours then osteoblast differentiation medium 48 hours, versus control (C)
Text: As described above, on the surface of hard structures such as bones or on the surface where cells are difficult to attach to, the peptide of the present invention can promotes the cell adhesion which is a key mechanism for the regeneration. […] Therefore, in this Example, various adhesive peptides developed and disclosed in the present disclosure were used to test their activity for promoting the osteocyte differentiation. For this, each peptide was mixed with undifferentiated stem cells, which was then cultured on a titanium osteoconductive surface, and analyzed the cells for the differentiation into osteocytes. Two×10^4 cells/ml treated with trypsin and mixed with peptide (10 μM) were cultured on a dental titanium disk having a diameter of 10 mm in size for 6 hours, after which the medium was replaced with osteoblast differentiation medium and the cells were cultured for 48 hours. Then the discs were recovered and the cells were lysed and ALP (Alkaline phosphatase) activity was measured.

| Substance | ectopic ossification (calcification in the muscle), micro-CT (femur muscle of mouse) | ALP (Alkaline phosphatase) activity [1] |
| --- | --- | --- |
| RQLVVKFRALPC [present peptide] | no ectopic ossification in all the mice treated | – |
| (R) 15-QLVVKFRALPC (RRRRRRRRRRRRRRRQLVVKFRALPC) [SEQ ID NO: 41, peptide positively charged at the N-terminus containing 15 arginine residues] | – | highest ALP activity |
